Laboratory results reported in paper PMC11249646, “Small-Molecule Disruptors of the Interaction between Calcium- and Integrin-Binding Protein 1 and Integrin αIIbβ3 as Novel Antiplatelet Agents” (ACS Pharmacology & Translational Science, 2024).
Like-named read-outs stand apart in the source and are kept apart here.

Tests used:
[1] = target: T1, GST-CIB1 : F-scrambled peptide (Homo sapiens, UniProt Q99828); experiment: FP scrambled-peptide counter screen, 1536-well format; format: binding; conditions: for Curve Class (counterscreen) / COUNTERSCREEN Curve Class: qHTS curve class; for IC50: read-out: IC50 [μM] (counterscreen)
T1 construct: made in house; host or cells: BL-21 plus RIL cells (E. coli)
T1 sequence (Q99828 1-191): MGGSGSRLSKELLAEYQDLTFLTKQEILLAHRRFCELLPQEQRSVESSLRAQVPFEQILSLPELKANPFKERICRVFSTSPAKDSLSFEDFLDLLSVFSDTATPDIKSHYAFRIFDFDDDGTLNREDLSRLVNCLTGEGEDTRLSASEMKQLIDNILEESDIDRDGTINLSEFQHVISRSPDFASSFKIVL

[2] = target: T2, CIB1 and αIIb interaction (CIB1-GST : F-αIIb peptide) (Homo sapiens, UniProt Q99828); experiment: FP assay, 1536-well qHTS format (primary and confirmatory screen); format: binding; conditions: for Curve Class (confirmatory screen) / CONFIRMATORY SCREEN Curve Class: qHTS curve class
T2 construct: made in house; host or cells: BL-21 plus RIL cells (E. coli)
T2 sequence (Q99828 1-191): T1 sequence (Q99828 1-191)

[3] = Table S3, counterscreen, a negative sign marks inhibitory curves
[4] = Table S3, counterscreen, negative = inhibition
[5] = Table S3, confirmatory screen, a negative sign marks inhibitory curves
[6] = Table S3, confirmatory screen, negative = inhibition
[7] = qHTS FP screen hits, Table S2, negative = inhibition
[8] = qHTS FP screen hits, Table S2, one class per curve where COUNT > 1, negative sign = inhibitory curve
[9] = qHTS FP screen hits, Table S2, read-out: IC50
[10] = qHTS primary screen hits, Table S2, negative = inhibition
[11] = qHTS primary screen hits, Table S2, negative sign = inhibitory curve, several classes where COUNT > 1
[12] = qHTS primary screen hits, Table S2, read-out: IC50
[13] = counterscreen, negative sign = inhibitory curve
[14] = confirmatory screen, negative sign = inhibitory curve
[15] = confirmatory screen, read-out: IC50 [μM] (confirmatory screen)
[16] = qHTS primary screen hits, Table S2, negative sign = inhibitory curve
[17] = Table S3, confirmatory screen, YES/NO call
[18] = Table S3, confirmatory screen, read-out: IC50 [μM] (confirmatory screen)
[19] = scrambled-peptide counterscreen

SMILES	Curve Class (counterscreen) [1, 3]	Efficacy (%) (counterscreen) [1, 4]	Curve Class (confirmatory screen) [2, 5]	Efficacy (%) (confirmatory screen) [2, 6]	Efficacy (%) [2, 7] [%]	IC50 [2, 9] [µM]	Efficacy (%) [2, 10] [%]	Curve Class [2, 11]	IC50 [2, 12] [µM]	Efficacy (%) (counterscreen) ([1]; counterscreen)	Curve Class (counterscreen) [1, 13]	IC50 ([1]; counterscreen) [µM]	Efficacy (%) (confirmatory screen) ([2]; confirmatory screen)	Confirm? (confirmatory screen) ([2]; confirmatory screen, YES/NO)	Curve Class (confirmatory screen) [2, 14]	IC50 [2, 15] [µM]	further results
O=C1c2cccc(O)c2C(=O)c2c(O)cc(CO)cc21 [NCGC00163510-03]	4	-8	4	-18	-33	9.6	–	–	–	–	–	–	–	–	–	–	Curve Class [2, 8]: -1.2
O=C1C=CC(=O)N1c1ccc(N2CCOCC2)cc1 [NCGC00373122-01]	–	–	–	–	–	–	-33	-2.4	28.2	–	–	–	–	–	–	–	COUNTERSCREEN Efficacy (%) ([1]; counterscreen): -8%; COUNTERSCREEN Curve Class ([1]; counterscreen): 4; CONFIRMATORY SCREEN Efficacy (%) ([2]; confirmatory screen): -44%; CONFIRMATORY SCREEN Curve Class ([2]; confirmatory screen): 4
NC(=O)c1ccc(Cc2c(-c3cccc(-c4ccccc4)c3)nn(-c3nc(C(=O)O)cs3)c2O)cc1.O=C(O)C(F)(F)F [NCGC00356638-01]	–	–	–	–	–	–	-59	-2.2	56.2	-60	-2.2	44.7	-125	YES	-2.1	70.8	–
COc1ccc(-n2ncc3c2CCCC3NC(=O)c2ccccc2Cl)cc1.O=C(O)C(F)(F)F (stereo not drawn) [NCGC00273443-01]	4	0	4	-11	–	–	-29	-2.4	25.1	–	–	–	–	–	–	–	–
O=C(NCCCN1CCNCC1)c1cccc(-c2cc(O)c3ncccc3c2)c1.O=C(O)C(F)(F)F [NCGC00244531-01]	-1.2	-52	4	-33	-46	39.8	–	–	–	–	–	–	–	–	–	–	Confirm? (counterscreen) ([1]; Table S3, counterscreen, YES/NO call): YES; IC50 ([1]; Table S3, counterscreen): 35.5 µM; Curve Class [2, 8]: -2.2
CCN1C(=O)c2ccccc2[S+]([O-])c2ccc(C(=O)NCc3cccc(F)c3)cc21 (stereo not drawn) [NCGC00241657-01]	–	–	–	–	–	–	-70	–	39.8	-26	-1.4	35.5	-68	YES	-2.2	50.1	Confirm? (counterscreen) ([1]; counterscreen, YES/NO): YES; Curve Class [2, 16]: -2.2
C=C1C(=O)O[C@@H]2[C@H]3C(C)=CC(=O)C3=C(C)[C@@H](OC(=O)/C(C)=C\C)[C@H](O)[C@@H]12 [NCGC00380702-01]	–	–	–	–	-35	3.5	–	–	–	-39	-1.2	1.6	-43	YES	-1.2	1.6	Curve Class [2, 8]: -1.2
CN1CCN(c2cccc(Nc3nn4c(=O)c5ccc(Br)cc5nc4s3)c2)CC1.Cl [NCGC00187814-01]	–	–	–	–	-28	39.8	–	–	–	-54	-2.2	50.1	-63	YES	-2.4	50.1	–
CS(=O)(=O)c1ccc(C(=O)OCC(=O)N2CCC(Cc3ccccc3)CC2)cc1[N+](=O)[O-] [NCGC00188541-01]	–	–	–	–	-25	0.7	–	–	–	–	–	–	–	–	–	–	COUNTERSCREEN Efficacy (%) ([1]; counterscreen): -22%; COUNTERSCREEN Curve Class ([1]; counterscreen): 4; CONFIRMATORY SCREEN Efficacy (%) ([2]; confirmatory screen): -18%; CONFIRMATORY SCREEN Curve Class ([2]; confirmatory screen): 4
CN1CCc2cccc3c2[C@H]1Cc1ccc(O)c(O)c1-3 [NCGC00025349-05]	4	-34	4	-17	–	–	-58	-2.4	12.6	–	–	–	–	–	–	–	–
COc1ccc(-n2ncc3c2CCCC3NC(=O)c2ccccc2F)cc1.O=C(O)C(F)(F)F (stereo not drawn) [NCGC00273507-01]	4	13	2.4	22	–	–	-45	-2.2	39.8	–	–	–	–	–	–	–	–
FC(F)(F)c1cccc(N2CCN(C(=S)Nc3nccc4cccnc34)CC2)c1.O=C(O)C(F)(F)F [NCGC00244201-01]	–	–	–	–	-55	28.2	–	–	–	-43	-1.2	22.4	-88	YES	-2.2	–	Curve Class [2, 8]: -1.2
O=C(O)CCNc1cc(N2CCc3ccccc3CC2)nc(-c2ccccn2)n1 [NCGC00347943-01]	–	–	–	–	–	–	–	–	–	–	–	–	–	–	–	–	COUNTERSCREEN Efficacy (%) ([1]; counterscreen): -35%; COUNTERSCREEN Curve Class ([1]; counterscreen): 4; CONFIRMATORY SCREEN Efficacy (%) ([2]; confirmatory screen): -28%; CONFIRMATORY SCREEN Curve Class ([2]; confirmatory screen): 4
CC(OC(=O)c1ccc(S(C)(=O)=O)c([N+](=O)[O-])c1)C(=O)NC1C2CC3CC(C2)CC1C3 (stereo not drawn) [NCGC00188535-01]	–	–	–	–	–	–	-30	-1.2	1.8	–	–	–	–	–	–	–	COUNTERSCREEN Efficacy (%) ([1]; counterscreen): -20%; COUNTERSCREEN Curve Class ([1]; counterscreen): 4; CONFIRMATORY SCREEN Efficacy (%) ([2]; confirmatory screen): -32%; CONFIRMATORY SCREEN Curve Class ([2]; confirmatory screen): 4
C=C1C(OC(=O)/C(C)=C\C)[C@@]23CCC4[C@@](C)(CCC[C@@]4(C)C(=O)O)C2CC[C@H]1C3OC(C)=O (stereo partly drawn) [NCGC00381205-01]	–	–	–	–	-30	20	–	–	–	-31	-1.4	8.9	-71	YES	-2.2	31.6	Curve Class [2, 8]: -2.2
COc1ccc2[nH]c([S+]([O-])Cc3ncc(C)c(OC)c3C)nc2n1 (stereo not drawn) [NCGC00386399-04]	-2.2	-72	-1.2	-44	–	–	–	–	–	–	–	–	–	–	–	–	IC50 ([1]; Table S3, counterscreen): 44.7 µM; Confirm? (confirmatory screen) [2, 17]: YES; IC50 [2, 18]: 25.1 µM
O=C1C[C@@](c2ccc(N3CCOCC3)cc2)(c2ccsc2)NC(=O)C1Sc1ccccc1Cl (stereo partly drawn) [NCGC00420796-01]	–	–	–	–	–	–	–	–	–	-34	-1.4	6.3	-47	YES	-2.2	20	–
O=S(=O)(c1ccc2nc(Cl)c(Cl)nc2c1)N1CCN(S(=O)(=O)c2c(F)cccc2F)CC1 [NCGC00182436-01]	–	–	–	–	–	–	-32	-1.4	2.2	–	–	–	–	–	–	–	COUNTERSCREEN Efficacy (%) [1, 19]: -18%; COUNTERSCREEN Confirm? ([1]; scrambled-peptide counterscreen, YES/NO call): YES; COUNTERSCREEN Curve Class [1, 19]: 4; CONFIRMATORY SCREEN Confirm? ([2]; confirmatory screen, YES/NO call): YES; CONFIRMATORY SCREEN Curve Class [2, 14]: -1.4; CONFIRMATORY SCREEN Efficacy (%) ([2]; confirmatory screen, negative = inhibition): -43%; IC50 ([2]; confirmatory screen, read-out: CONFIRMATORY SCREEN IC50): 5.6 µM
O=C(O)C(F)(F)F.O=C1CCCC2=C1C(c1cccnc1Br)N=C(Nc1nc3ccccc3o1)N2 (stereo not drawn) [NCGC00189281-01]	–	–	–	–	–	–	-26	–	25.1	–	–	–	–	–	–	–	COUNTERSCREEN Efficacy (%) ([1]; counterscreen): 0%; COUNTERSCREEN Curve Class ([1]; counterscreen): 4; CONFIRMATORY SCREEN Efficacy (%) ([2]; confirmatory screen): -31%; CONFIRMATORY SCREEN Curve Class ([2]; confirmatory screen): 4; Curve Class [2, 16]: -2.4
O=C(O)C(F)(F)F.O=C1CC(c2ccccc2Cl)c2sc(N3CCOCC3)nc2N1 (stereo not drawn) [NCGC00488256-02]	-2.2	-77	-2.4	-49	–	–	-72	-2.2	79.4	–	–	–	–	–	–	–	IC50 ([1]; Table S3, counterscreen): 31.6 µM; Confirm? (confirmatory screen) [2, 17]: YES; IC50 [2, 18]: 50.1 µM
O=C(c1cc(O)c(O)c(O)c1)c1ccc(O)c(O)c1O [NCGC00249050-02]	-1.1	-99	-2.1	-86	–	–	-42	-2.2	39.8	–	–	–	–	–	–	–	IC50 ([1]; Table S3, counterscreen): 25.1 µM; Confirm? (confirmatory screen) [2, 17]: YES; IC50 [2, 18]: 25.1 µM
CCOC(=O)C1CCN(C(=O)C(C)(C)NC(=O)Nc2ccc(C#N)cc2)CC1.O=C(O)C(F)(F)F [NCGC00242565-01]	–	–	–	–	-22	2.2	–	–	–	-30	-1.4	15.8	-28	YES	-1.4	7.9	–
